Test results published in patent publication US20060222706A1 (priority 2005, published 2006).

Assay: small volume in vitro release in 50 ml 0.1N HCl
Format: physicochemical
Settings: 37° C., 150 rpm
Experimental: The formulations were tested for their small volume in vitro release characteristics in 50 ml 0.1N HCl at 37° C. and 150 rpm using the following procedure: III. Instrumentation (or Equivalent) • a. Automated Dissolution System comprising of: • Hanson SR8 Plus Test Station • Hanson Auto Plus Maximiser System Controller • Hanson Auto Plus MultiFill Fraction Collector • b. […] Procedure • Place one weighed capsule in each vessel containing 0.1N HCl and immediately operate the apparatus for 30 min. • Unless otherwise specified, 3 ml samples are withdrawn from each vessel and immediately filtered through PTFE membranes at 15 and 30 min. IV.
The small volume was chosen as a model of the conditions in a fasted stomach.

dissolution under small volume model condition (in words): no dissolution at all
SMILES: CC(C)OC(=O)C(C)(C)Oc1ccc(C(=O)c2ccc(Cl)cc2)cc1 [Micronized Fenofibrate]
